Patent US20260034094A1, “COMPOSITIONS AND METHODS FOR INDUCING FERROPTOSIS” (Kojin Therapeutics, Inc., priority 2022, published 2026)
“And” between values parts separate entries of the source, which are not always exact repeats. Identical values can stand only once. Like-named read-outs stand apart in the source and are kept apart here.

Columns and labels:
[1] = target: human recombinant GCL (Homo sapiens (Human), UniProt P48506); assay: GCL enzyme profiling assay (ADP-Glo luminescence); type: biochemical
Sequence of human recombinant GCL (P48506 whole entry): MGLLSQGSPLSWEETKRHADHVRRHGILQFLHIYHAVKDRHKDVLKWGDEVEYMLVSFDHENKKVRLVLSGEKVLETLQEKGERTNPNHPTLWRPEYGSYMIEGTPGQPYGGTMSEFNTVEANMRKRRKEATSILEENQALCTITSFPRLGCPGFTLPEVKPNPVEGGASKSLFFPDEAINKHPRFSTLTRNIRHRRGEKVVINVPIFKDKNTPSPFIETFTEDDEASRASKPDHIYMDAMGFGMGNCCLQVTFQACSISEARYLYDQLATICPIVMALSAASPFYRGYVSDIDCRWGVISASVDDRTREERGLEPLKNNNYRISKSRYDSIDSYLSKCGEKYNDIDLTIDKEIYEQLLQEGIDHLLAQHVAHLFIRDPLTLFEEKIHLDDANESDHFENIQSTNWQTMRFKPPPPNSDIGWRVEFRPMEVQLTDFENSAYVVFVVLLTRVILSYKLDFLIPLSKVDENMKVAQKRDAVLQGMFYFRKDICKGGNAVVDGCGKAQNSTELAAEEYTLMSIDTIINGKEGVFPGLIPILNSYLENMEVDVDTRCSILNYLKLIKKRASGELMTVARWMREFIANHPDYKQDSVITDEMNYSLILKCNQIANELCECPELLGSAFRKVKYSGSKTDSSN
Procedure, shortened: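 ADP-Glo luminescence readout; 5 nM enzyme preincubated 1 h at 22 °C with 0.6 mM ATP, then started with 1 mM glutamate and 1.2 mM α-aminobutyrate, stopped after 2 h. Buffer: HEPES pH 7.5, MgCl2, DTT, BSA, 0.2% F-127, 1% DMSO. IC50 from four-parameter logistic fit.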

[2] = system: RKN cells; assay: RKN cell profiling assay (cell viability, CellTiter-Glo); type: cell-based; conditions: read-out: Cell Killing EC50
Procedure, shortened: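 Cells seeded at 1,000/well in F-12 with 10% FBS, left to adhere 24 h, then compound-treated for 96 h at 0.5% final DMSO. Viability by CellTiter-Glo luminescence; EC50 from four-parameter logistic fit. Ferroptosis rescue runs included 1.5 μM ferrostatin-1 added at seeding.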

[3] = human recombinant GCL 5 nM, 1 h preincubation with ATP, read-out: GCL IC50
[4] = human recombinant GCL, ADP-Glo, read-out: GCL IC50

Row | IC50 [1, 3] | IC50 [1, 4] [mM] | Compound | EC50 ([2]; 96 h, 96 h exposure) [µM] | EC50 ([2]; cell viability) [µM] | other results
1 | 0.02 to 2 mM |  | CC(C)(C)[C@H](N)CS(=N)(=O)CC[C@H](N)C(=O)O (stereo partly drawn) [Compound 148] | ≥ 1000 |  | 
2 | ≤ 0.02 mM |  | N=S(=O)(CCc1ccccc1O)CC[C@H](N)C(=O)O (stereo partly drawn) [Compound 21] | < 1000 |  | 
3 | 0.02 to 2 mM |  | N=S(=O)(CCCC(F)(F)F)CC[C@H](N)C(=O)OC1CCCCC1 (stereo partly drawn) [Compound 80] | < 1000 |  | 
4 |  | ≤ 0.02 | N=S(=O)(CCC(c1ccc(-c2cccc(N)c2)cc1)C(F)(F)F)CC[C@H](N)C(=O)O (stereo partly drawn) [Compound 239] |  | ≥ 1000 | 
5 |  | 0.02 to 2 | CNC(=O)C(CCS(=N)(=O)CC[C@H](N)C(=O)O)C(F)(F)F (stereo partly drawn) [Compound 307] |  | < 1000 | 
6 | > 2 mM |  | CC(C)(C)CCS(=N)(=O)CC[C@H](N)C(=O)NC(CO)CO (stereo partly drawn) [Compound 126] | ≥ 1000 |  | 
7 |  | 0.02 to 2 | CC(C)(C)c1nnc(-c2ccc(C(O)(CCS(=N)(=O)CC[C@H](N)C(=O)O)C(F)(F)F)cc2)o1 (stereo partly drawn) [Compound 445] |  | ≥ 1000 | 
8 | 0.02 to 2 mM |  | N=S(=O)(CC[C@H](N)C(=O)O)Cc1ccccc1C(=O)O (stereo partly drawn) [Compound 168] | ≥ 1000 |  | 
9 | 0.02 to 2 mM |  | CC(C)(CCS(=N)(=O)CC[C@H](N)C(=O)O)c1ccccc1 (stereo partly drawn) [Compound 49, (2S)-2-amino-4-(3-methyl-3-phenylbutylsulfonimidoyl)butanoic acid] | ≥ 1000 |  | 
10 |  | ≤ 0.02 | N=S(=O)(CC[C@H](N)C(=O)O)CCC(O)(c1ncc(-c2ccccc2)[nH]1)C(F)(F)F (stereo partly drawn) [Compound 358] |  | < 1000 | 
11 | ≤ 0.02 mM |  | N=S(=O)(CCc1cccs1)CC[C@H](N)C(=O)O (stereo partly drawn) [Compound 48] | ≥ 1000 |  | 
12 |  | > 2 | CC(C)(C)OC(=O)[C@@H](N)CC[S@@](=N)(=O)CC[C@H](O)C(F)(F)F [Compound 489, tert-butyl (S)-2-amino-4-((R,3S)-4,4,4-trifluoro-3-hydroxybutylsulfonimidoyl)butanoate] |  | ≥ 1000 | 
13 |  | ≤ 0.02 | Cc1cc(-c2ccc(C(O)(CCS(=N)(=O)CC[C@H](N)C(=O)O)C(F)(F)F)cc2)c(C)o1 (stereo partly drawn) [Compound 447] |  | ≥ 1000 | 
14 | 0.02 to 2 mM |  | N=S(=O)(CCC1C2CC3CC(C2)CC1C3)CC[C@H](N)C(=O)O (stereo partly drawn) [Compound 143] | ≥ 1000 |  | 
15 | > 2 mM |  | CC(C)(C)CCS(=N)(=O)CC[C@H](N)C(=O)Nc1cccnc1 (stereo partly drawn) [Compound 101, (2S)-2-amino-4-(3,3-dimethylbutylsulfonimidoyl)-N-(pyridin-3-yl)butanamide] | < 1000 |  | 
16 |  | 0.02 to 2 | N=[S@SP2](=O)(CCC(N)C(=O)O)CCC(c1ccccc1)(C(F)(F)F)C(F)(F)F (stereo not drawn) [compound 508] |  | ≥ 1000 | 
17 | 0.02 to 2 mM |  | N=S(=O)(CCc1nc(-c2ccccc2)cs1)CC[C@H](N)C(=O)O (stereo partly drawn) [Compound 17] | ≥ 1000 |  | 
18 |  | 0.02 to 2 | N=S(=O)(CC[C@H](N)C(=O)O)CCC(O)(c1ccc(-c2ccc(Cl)cc2Cl)cn1)C(F)(F)F (single isomer, unassigned) [Compound 464] |  | ≥ 1000 | 
19 |  | ≤ 0.02 | N=S(=O)(CCC(c1ccc(C#Cc2ccccc2)cc1)C(F)(F)F)CC[C@H](N)C(=O)O (stereo partly drawn) [Compound 215, (2S)-2-amino-4-(4,4,4-trifluoro-3-(4-(phenylethynyl)phenyl)butylsulfonimidoyl)butanoic acid] |  | < 1000 | 
20 | ≤ 0.02 mM |  | Cc1ccc(-c2nn[nH]n2)cc1CCS(=N)(=O)CC[C@H](N)C(=O)O (stereo partly drawn) [Compound 45] | ≥ 1000 |  | 
21 |  | ≤ 0.02 | N=S(=O)(CC[C@H](N)C(=O)O)CCC(O)(c1ccc(Cc2ccc(Cl)cc2Cl)cc1)C(F)(F)F (stereo partly drawn) [Compound 457] |  | ≥ 1000 | 
22 | 0.02 to 2 mM |  | CCCCOC(=O)[C@@H](N)CCS(=N)(=O)CCC1CCCCC1 (stereo partly drawn) [Compound 78] | < 1000 |  | 
23 | ≤ 0.02 mM |  | N=S(=O)(CCC(c1ccc(-c2ccccc2)cc1)C(F)(F)F)CC[C@H](N)C(=O)O (stereo partly drawn) [Compound 211, (2S)-4-(3-([1,1′-biphenyl]-4-yl)-4,4,4-trifluorobutylsulfonimidoyl)-2-aminobutanoic acid] | < 1000 |  | 
24 | 0.02 to 2 mM |  | N=S(=O)(CCc1ccccc1)CC[C@H](N)C(=O)O (stereo partly drawn) [Compound 2, (2S)-2-amino-4-(2-phenylethylsulfonimidoyl)butanoic acid] | ≥ 1000 |  | 
25 | ≤ 0.02 mM |  | N=S(=O)(CCCC(F)(F)F)CC[C@H](N)C(=O)O (stereo partly drawn) [Compound 150, (2S)-2-amino-4-(4,4,4-trifluorobutylsulfonimidoyl)butanoic acid] | < 1000 |  | 
26 | > 2 mM and 0.02 to 2 mM |  | CCCCS(=N)(=O)CC[C@H](N)C(=O)OCc1oc(=O)oc1C (stereo partly drawn) [Compound 73, (2S)-(5-methyl-2-oxo-1,3-dioxol-4-yl)methyl 2-amino-4-(butylsulfonimidoyl) butanoate] | ≥ 1000 |  | 
27 | 0.02 to 2 mM |  | COC(=O)C(C)(C)CCS(=N)(=O)CC[C@H](N)C(=O)O (stereo partly drawn) [Compound 167] | < 1000 |  | 

Row | IC50 [1, 3] | IC50 [1, 4] [mM] | Compound | EC50 ([2]; 96 h, 96 h exposure) [µM] | EC50 ([2]; cell viability) [µM] | other results
28 | > 2 mM |  | CC(C)(C)CCS(=N)(=O)CC[C@H](N)C(=O)NC1COC1 (stereo partly drawn) [Compound 129] | < 1000 |  | 
29 |  | 0.02 to 2 | COCC(C)(C)CCS(=N)(=O)CC[C@H](N)C(=O)O (stereo partly drawn) [Compound 321] |  | < 1000 | 
30 | 0.02 to 2 mM |  | CC(C)(C)CCS(=N)(=O)CC[C@H](N)C(=O)Nc1ccccn1 (stereo partly drawn) [Compound 128] | < 1000 |  | 
31 | 0.02 to 2 mM |  | COC(=O)[C@@H](N)CCS(=N)(=O)CCCc1ccccc1 (stereo partly drawn) [Compound 70, (2S)-methyl 2-amino-4-(3-phenylpropylsulfonimidoyl)butanoate] | ≥ 1000 |  | 
32 | > 2 mM and 0.02 to 2 mM |  | CC(C)(C)CCS(=N)(=O)CC[C@H](N)C(=O)Nc1cc[nH]n1 (stereo partly drawn) [Compound 123] | ≥ 1000 |  | IC50 ([1]; human recombinant GCL 5 nM, 1 h preincubation with ATP, read-out: GCL IC50 (mM), individual values in parentheses): > 10 mM and 1.16 mM
33 |  | ≤ 0.02 | CS(=O)(=O)c1ccc(-c2ccc(C(O)(CCS(=N)(=O)CC[C@H](N)C(=O)O)C(F)(F)F)cc2)c(Cl)c1 (stereo partly drawn) [Compound 442] |  | ≥ 1000 | 
34 |  | 0.02 to 2 | N=S(=O)(CC[C@H](N)C(=O)O)CCC(O)(c1ccon1)C(F)(F)F (stereo partly drawn) [Compound 368] |  | < 1000 | 
35 | 0.02 to 2 mM |  | COC(=O)[C@@H](N)CCS(=N)(=O)CCc1ccccc1 (stereo partly drawn) [Compound 68, (2S)-methyl 2-amino-4-(2-phenylethylsulfonimidoyl)butanoate] | ≥ 1000 |  | 
36 | 0.02 to 2 mM |  | CC(CS(=N)(=O)CC[C@H](N)C(=O)O)c1ccccc1Cl (stereo partly drawn) [Compound 38] | ≥ 1000 |  | 
37 | 0.02 to 2 mM |  | CCCCOC(=O)[C@@H](N)CCS(=N)(=O)CCC(C)(C)C (stereo partly drawn) [Compound 72, (2S)-butyl 2-amino-4-(3,3-dimethylbutylsulfonimidoyl)butanoate] | < 1000 |  | 
38 |  | 0.02 to 2 | CCCCS(=N)(=O)CC[C@H](N)C(=O)OCC (stereo partly drawn) [Compound 482] |  | ≥ 1000 | 
39 |  | > 2 | N[C@@H](CCS(=O)(=O)CCC1(C(F)(F)F)OC(=O)c2ccccc21)C(=O)O (stereo partly drawn) [compound 512] |  | ≥ 1000 | 
40 |  | 0.02 to 2 | N=S(=O)(CC[C@H](N)C(=O)O)CCC1(c2ccc3[nH]nnc3c2)CCC1 (stereo partly drawn) [Compound 395] |  | < 1000 | 
41 | 0.02 to 2 mM |  | Cc1ccc(C(C)(C)CCS(=N)(=O)CC[C@H](N)C(=O)O)cc1 (stereo partly drawn) [Compound 56] | ≥ 1000 |  | 
42 | 0.02 to 2 mM |  | N=S(=O)(CC[C@H](N)C(=O)O)CCC1(C(=O)N2CCCC2)CCC1 (stereo partly drawn) [Compound 194] | ≥ 1000 |  | 
43 |  | 0.02 to 2 | N=S(=O)(CCC(c1ccc(S(=O)(=O)c2ccccc2)cc1)C(F)(F)F)CC[C@H](N)C(=O)O (stereo partly drawn) [Compound 216, (2S)-2-amino-4-(4,4,4-trifluoro-3-(4-(phenylsulfonyl)phenyl)butylsulfonimidoyl) butanoic acid] |  | ≥ 1000 | 
44 | ≤ 0.02 mM |  | Cc1ccc(Cl)c(CCS(=N)(=O)CC[C@H](N)C(=O)O)c1 (stereo partly drawn) [Compound 39] | ≥ 1000 |  | 
45 |  | ≤ 0.02 | N=S(=O)(CCC(C(F)(F)F)C12CC(C1)C2)CC[C@H](N)C(=O)O (stereo partly drawn) [Compound 384] |  | ≥ 1000 | 
46 | 0.02 to 2 mM |  | N=S(=O)(CCc1ccccc1C1CC1)CC[C@H](N)C(=O)O (stereo partly drawn) [Compound 34] | ≥ 1000 |  | 
47 | 0.02 to 2 mM |  | N=S(=O)(/C=C/c1ccccc1)CC[C@H](N)C(=O)O (stereo partly drawn) [Compound 156] | ≥ 1000 |  | 
48 |  | ≤ 0.02 | N=S(=O)(CC[C@H](N)C(=O)O)CCC1(n2nc3ccccc3n2)CCC1 (stereo partly drawn) [Compound 421] |  | ≥ 1000 | 
49 | 0.02 to 2 mM |  | CCCCOC(=O)[C@@H](N)CCS(=N)(=O)CCc1cccc(F)c1C(F)(F)F (stereo partly drawn) [Compound 92] | < 1000 |  | 
50 |  | ≤ 0.02 | N=S(=O)(CC[C@H](N)C(=O)O)CCC1(C(F)(F)F)CCC1 (stereo partly drawn) [Compound 296] |  | < 1000 | 
51 | > 2 mM |  | CC(C)(C)CCS(=N)(=O)CC[C@H](N)C(=O)NC(C)(C)C (stereo partly drawn) [Compound 117] | ≥ 1000 |  | 
52 |  | ≤ 0.02 | N=[S@SP2](=O)(CCC(N)C(=O)O)CCC(O)(c1ccc(Nc2nccs2)cc1)C(F)(F)F (stereo not drawn) [compound 505] |  | ≥ 1000 | 
53 |  | ≤ 0.02 | N=S(=O)(CCC(C1CCCC1)C(F)(F)F)CC[C@H](N)C(=O)O (stereo partly drawn) [Compound 382] |  | ≥ 1000 | 

Row | Compound | IC50 [1, 3] | IC50 [1, 4] [mM] | EC50 ([2]; 96 h, 96 h exposure) [µM] | EC50 ([2]; cell viability) [µM] | other results
54 | CC1(CCS(=N)(=O)CC[C@H](N)C(=O)O)COC1 (stereo partly drawn) [Compound 185] | 0.02 to 2 mM |  |  |  | EC50 ([2]; 96 h exposure): ≥ 1000 µM
55 | N[C@@H](CCS(=O)(=O)CCC(O)(c1ccc(-c2ccc(Cl)cc2Cl)cc1)C(F)(F)F)C(=O)O (stereo partly drawn) [Compound 427, (2S)-2-amino-4-((3-(2′, 4′-dichloro-[1, 1′-biphenyl]-4-yl)-4,4,4-trifluoro-3-hydroxybutyl)sulfonyl) butanoic acid] |  | 0.02 to 2 |  | ≥ 1000 | 
